Tests used:
Escherichia coli = test: Microbiological evaluation of standardised bacterial suspensions, modified wound dressing with absorbed substrate on agar; type: cell-based; set-up: key to Observable colour change: − indicates no colour change; +− indicates relatively discernible blue colour change; + indicates a moderately strong blue colour change; ++ indicates a strong blue colour change
Description: (§1) ACTIVHEAL® simply A (10×20 cm) non-adhesive foam samples were provided by Advanced Medical Solutions Ltd. The wound dressings were cut into ~5-10×5-10 mm squares, using an ethanol washed pair of scissors. A maximum of 0.20 g of the material was added into 10 mL DI water, and the pH was adjusted to ~3 by the addition of 0.1 M aq. HCl solution. The solution was stirred for 10 mins at room temperature, followed by the addition of 0.33 g EDC •HCl (1.7 mmol) and the pH was maintained at ~3 by the addition of 0.1 M aq. HCl solution. The solution was stirred at room temperature for 10 mins followed by the addition of 0.88 g compound 8 which was dissolved in DMSO or DMF. The mixture was stirred at room temperature for 48 h. The wound dressings were filtered and were washed with ethanol. To ensure the full removal of any non-coupled amide (8), the foam samples were resuspended in ethanol, stirred for 10 mins and filtered, and this process was repeated until the amide (8) was not detectable from the filtrate (this could be maintained by TLC or HPLC evaluation). The samples were dried in a vacuum oven for 3-4 h.
(§2) The aqueous solution of 3a or 3b was prepared by the following: the desired amount of the enzymatic substrate (3.0 mg for 300 mg/L, 6.0 mg for 600 mg/L, 9.0 mg for 900 mg/L, 15.0 mg for 1500 mg/L, and 30.0 mg for 3000 mg/L) was weighed out on a 4 decimal place balance within ±0.3 mg error limit into a 10 mL volumetric flask and was adjusted to 10.0 mL with DI water. The solutions were absorbed into the foam samples and dried in a vacuum oven at 40° C. overnight.
(§3) Bacterial strains were routinely cultured from working stocks in Tryptic Soy Broth (TSB) and incubated at 37° C. overnight with shaking at 150 RPM. Overnight cultures were centrifuged at 3000×g for 5 minutes, the supernatant discarded, and the pellet resuspended in 10 mL phosphate buffered saline (PBS). Bacterial inoculums were standardised by optical density at 600 nm on an Amersham Biosciences Ultrospec 10 spectrophotometer (Amersham Biosciences, Amersham, UK) to contain between 1 and 3×10^8 CFU/mL.
However, rapid evaluation of lower bacteria concentrations is essential for the desired clinical application. Three different solutions (300, 600 and 1500 mg/L) were prepared from the substrates 3a and 3b in micro filtered DI water as a solvent. The solutions were absorbed into the wound dressing samples, which were dried overnight under vacuum at 40° C.
(§4) Two Gram negative strains (Escherichia coli—EC and Pseudomonas aeruginosa—PSA) and a Gram-positive bacterium (Staphylococcus aureus—SA) were evaluated. The bacteria were incubated overnight, centrifuged at 3000×g for 5 mins, the supernatant was discarded, and the residue pellets were resuspended in 10 mL PBS. The inoculums were standardised by measuring the optical density at 600 nm to assure a 1-3×10^8 CFU/mL. The standardised solutions were further diluted to prepare 1-3×10^6 and 1-3×10^4 CFU/mL suspension. 1×10^6 CFU would be an ideal breakpoint for a positive result, as this concentration coincides well with a level of colonisation that would likely go on to produce an infection.
(§5) 100 μL bacterial suspensions were smeared over agar plates. Wound dressing samples were added to the top of the agar and were rolled over a few times (to ensure a full coverage and to ease the visibility of the colour change). The plates were incubated at 37° C., and the results were recorded after 24 h, after 48 h, after 72 h. The results are shown in Table 3-5; − indicates no colour change, +− indicates relatively discernible blue colour change, + indicates a moderately strong blue colour change and ++ indicates a strong blue colour change.

Staphylococcus aureus = test: as above; type: cell-based; set-up: key to Observable colour change: − indicates no colour change; +− indicates relatively discernible blue colour change; + indicates a moderately strong blue colour change; ++ indicates a strong blue colour change; details: for colour change: SA
Description: as §1, §2, §3
However, rapid evaluation of lower bacteria concentrations is essential for the desired clinical application. […] The solutions were absorbed into the wound dressing samples, which were dried overnight under vacuum at 40° C.
as §4, §5

With `CCN(CC)c1ccc(NC(=O)[C@@H](N)CC(C)C)cc1.Cl` [3b, (2S)-2-amino-N-[4-(diethylamino)phenyl]-4-methyl-pentanamide hydrochloride] the Observable colour change (Escherichia coli; EC 10^4, substrate 300 mg/L, 24 h at 37° C.) was “−”, the Observable colour change (Escherichia coli; EC 10^4, substrate 300 mg/L, 48 h at 37° C.) was “+” and the Observable colour change (Escherichia coli; EC 10^4, substrate 300 mg/L, 72 h at 37° C.) was “+”. The Observable colour change (Escherichia coli; EC 10^4, substrate 900 mg/L, 24 h at 37° C.) was “−”, the Observable colour change (Escherichia coli; EC 10^4, substrate 900 mg/L, 48 h at 37° C.) was “+” and the Observable colour change (Escherichia coli; EC 10^4, substrate 900 mg/L, 72 h at 37° C.) was “++”. The Observable colour change (Escherichia coli; EC 10^4, substrate 1500 mg/L, 24 h at 37° C.) was “−”, the Observable colour change (Escherichia coli; EC 10^4, substrate 1500 mg/L, 48 h at 37° C.) was “+” and the Observable colour change (Escherichia coli; EC 10^4, substrate 1500 mg/L, 72 h at 37° C.) was “++”. For the same molecule, the Observable colour change (Escherichia coli; EC 10^6, substrate 300 mg/L, 24 h at 37° C.) was “−”, the Observable colour change (Escherichia coli; EC 10^6, substrate 300 mg/L, 48 h at 37° C.) was “+” and the Observable colour change (Escherichia coli; EC 10^6, substrate 300 mg/L, 72 h at 37° C.) was “+”. The Observable colour change (Escherichia coli; EC 10^6, substrate 900 mg/L, 24 h at 37° C.) was “−”, the Observable colour change (Escherichia coli; EC 10^6, substrate 900 mg/L, 48 h at 37° C.) was “+” and the Observable colour change (Escherichia coli; EC 10^6, substrate 900 mg/L, 72 h at 37° C.) was “++”. The Observable colour change (Escherichia coli; EC 10^6, substrate 1500 mg/L, 24 h at 37° C.) was “+−”, the Observable colour change (Escherichia coli; EC 10^6, substrate 1500 mg/L, 48 h at 37° C.) was “+” and the Observable colour change (Escherichia coli; EC 10^6, substrate 1500 mg/L, 72 h at 37° C.) was “++”. The colour change (Escherichia coli; EC 10^6 CFU and 10^4 CFU, after 48 h incubation) was “moderate colour change”, the colour change (Escherichia coli; EC 10^8, 10^6 or 10^4 CFU, after 72 h, every tested substrate concentration) was “moderate or strong blue colour changes” and the Observable colour change (Escherichia coli; EC 10^8, substrate 300 mg/L, 24 h at 37° C.) was “+−”. The Observable colour change (Escherichia coli; EC 10^8, substrate 300 mg/L, 48 h at 37° C.) was “+”, the Observable colour change (Escherichia coli; EC 10^8, substrate 300 mg/L, 72 h at 37° C.) was “+” and the Observable colour change (Escherichia coli; EC 10^8, substrate 900 mg/L, 24 h at 37° C.) was “+−”. For the same molecule, the Observable colour change (Escherichia coli; EC 10^8, substrate 900 mg/L, 48 h at 37° C.) was “++”, the Observable colour change (Escherichia coli; EC 10^8, substrate 900 mg/L, 72 h at 37° C.) was “++” and the Observable colour change (Escherichia coli; EC 10^8, substrate 1500 mg/L, 24 h at 37° C.) was “+−”. The Observable colour change (Escherichia coli; EC 10^8, substrate 1500 mg/L, 48 h at 37° C.) was “++”, the Observable colour change (Escherichia coli; EC 10^8, substrate 1500 mg/L, 72 h at 37° C.) was “++” and the colour change (Escherichia coli; EC 10^8 CFU, 10^6 CFU, and 104 CFU, substrate 900 mg/L, printed in the 48 h paragraph) was “strong blue colour changes”. The colour change (Escherichia coli; EC 10^8 CFU, after 48 h incubation, substrate 900 or 1500 mg/L) was “strong blue colour changes”, the Observable colour change (Staphylococcus aureus; SA 10^4, substrate 300 mg/L, 24 h at 37° C.) was “−” and the Observable colour change (Staphylococcus aureus; SA 10^4, substrate 300 mg/L, 48 h at 37° C.) was “−”. The Observable colour change (Staphylococcus aureus; SA 10^4, substrate 300 mg/L, 72 h at 37° C.) was “−”, the Observable colour change (Staphylococcus aureus; SA 10^4, substrate 900 mg/L, 24 h at 37° C.) was “−” and the Observable colour change (Staphylococcus aureus; SA 10^4, substrate 900 mg/L, 48 h at 37° C.) was “−”. The Observable colour change (Staphylococcus aureus; SA 10^4, substrate 900 mg/L, 72 h at 37° C.) was “−”, the Observable colour change (Staphylococcus aureus; SA 10^4, substrate 1500 mg/L, 24 h at 37° C.) was “−” and the Observable colour change (Staphylococcus aureus; SA 10^4, substrate 1500 mg/L, 48 h at 37° C.) was “−”. The Observable colour change (Staphylococcus aureus; SA 10^4, substrate 1500 mg/L, 72 h at 37° C.) was “−”, the Observable colour change (Staphylococcus aureus; SA 10^6, substrate 300 mg/L, 24 h at 37° C.) was “−” and the Observable colour change (Staphylococcus aureus; SA 10^6, substrate 300 mg/L, 48 h at 37° C.) was “−”. The Observable colour change (Staphylococcus aureus; SA 10^6, substrate 300 mg/L, 72 h at 37° C.) was “−”, the Observable colour change (Staphylococcus aureus; SA 10^6, substrate 900 mg/L, 24 h at 37° C.) was “−” and the Observable colour change (Staphylococcus aureus; SA 10^6, substrate 900 mg/L, 48 h at 37° C.) was “−”. For the same molecule, the Observable colour change (Staphylococcus aureus; SA 10^6, substrate 900 mg/L, 72 h at 37° C.) was “−”, the Observable colour change (Staphylococcus aureus; SA 10^6, substrate 1500 mg/L, 24 h at 37° C.) was “−” and the Observable colour change (Staphylococcus aureus; SA 10^6, substrate 1500 mg/L, 48 h at 37° C.) was “−”. For the same molecule, the Observable colour change (Staphylococcus aureus; SA 10^6, substrate 1500 mg/L, 72 h at 37° C.) was “+−”, the Observable colour change (Staphylococcus aureus; SA 10^8, substrate 300 mg/L, 24 h at 37° C.) was “−” and the Observable colour change (Staphylococcus aureus; SA 10^8, substrate 300 mg/L, 48 h at 37° C.) was “−”. The Observable colour change (Staphylococcus aureus; SA 10^8, substrate 300 mg/L, 72 h at 37° C.) was “−”, the Observable colour change (Staphylococcus aureus; SA 10^8, substrate 900 mg/L, 24 h at 37° C.) was “−” and the Observable colour change (Staphylococcus aureus; SA 10^8, substrate 900 mg/L, 48 h at 37° C.) was “−”. The Observable colour change (Staphylococcus aureus; SA 10^8, substrate 900 mg/L, 72 h at 37° C.) was “−”, the Observable colour change (Staphylococcus aureus; SA 10^8, substrate 1500 mg/L, 24 h at 37° C.) was “−” and the Observable colour change (Staphylococcus aureus; SA 10^8, substrate 1500 mg/L, 48 h at 37° C.) was “+−”. For the same molecule, the Observable colour change (Staphylococcus aureus; SA 10^8, substrate 1500 mg/L, 72 h at 37° C.) was “+−”, the colour change (Staphylococcus aureus; 48 h paragraph, substrate 1500 mg/L) was “weak, but discernible colour change” and the colour change (Staphylococcus aureus; after 72 h, substrate 1500 mg/L) was “weak, hardly visible colour change”.

— patent publication US20260263651A1, “WOUND DRESSING” (UNIVERSITY OF SUNDERLAND, priority 2023, published 2026)
